In PubChem BioAssay AID1963435 (Molecular Pharmacology Branch, DTP, NCI, 2024):

Tested on: PANC-1 complex spheroid growth, percent test/control
Assay: Anticancer human tumor PANC-1 cell line growth inhibition [Asc];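 also: spheroids exposed to agents for 7 days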;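 as to viability, T/C: percent viability relative to DMSO vehicle wells taken as 100%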
Conditions: for IC50: curve of first compound; for viability, T/C: stronger effect = lower value; active = viability on the fitted dose curve at most 10% of control; inactive = the rest
Method in brief: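 Complex solid-tumor spheroids incorporating human endothelial and mesenchymal stem cells received single agents or combinations over half-log dilution ranges anchored to clinical Cmax.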

[1] = second compound 0.00316 µM, first compound 0.0316 µM
[2] = second compound 0.00316 µM, first compound 0.1 µM
[3] = second compound 0.00316 µM, first compound 0.316 µM
[4] = second compound 0.00316 µM, first compound 1 µM
[5] = second compound 0.00316 µM, first compound 3.16 µM
[6] = second compound 0.00316 µM, first compound 10 µM
[7] = second compound 0.01 µM, first compound 0.0316 µM
[8] = second compound 0.01 µM, first compound 0.1 µM
[9] = second compound 0.01 µM, first compound 0.316 µM
[10] = second compound 0.01 µM, first compound 1 µM
[11] = second compound 0.01 µM, first compound 3.16 µM
[12] = second compound 0.01 µM, first compound 10 µM
[13] = second compound 0.0316 µM, first compound 0.0316 µM
[14] = second compound 0.0316 µM, first compound 0.1 µM
[15] = second compound 0.0316 µM, first compound 0.316 µM
[16] = second compound 0.0316 µM, first compound 1 µM
[17] = second compound 0.0316 µM, first compound 3.16 µM
[18] = second compound 0.0316 µM, first compound 10 µM
[19] = second compound 0.1 µM, first compound 0.0316 µM
[20] = second compound 0.1 µM, first compound 0.1 µM
[21] = second compound 0.1 µM, first compound 0.316 µM
[22] = second compound 0.1 µM, first compound 1 µM
[23] = second compound 0.1 µM, first compound 3.16 µM
[24] = second compound 0.1 µM, first compound 10 µM
[25] = second compound 0.316 µM, first compound 0.0316 µM
[26] = second compound 0.316 µM, first compound 0.1 µM
[27] = second compound 0.316 µM, first compound 0.316 µM
[28] = second compound 0.316 µM, first compound 1 µM
[29] = second compound 0.316 µM, first compound 3.16 µM
[30] = second compound 0.316 µM, first compound 10 µM
[31] = second compound 1 µM, first compound 0.0316 µM
[32] = second compound 1 µM, first compound 0.1 µM
[33] = second compound 1 µM, first compound 0.316 µM
[34] = second compound 1 µM, first compound 1 µM
[35] = second compound 1 µM, first compound 3.16 µM
[36] = second compound 1 µM, first compound 10 µM

C#Cc1c(F)ccc2cc(O)cc(-c3ncc4c(N5CC6CCC(C5)N6)nc(OCC56CCCN5CC(F)C6)nc4c3F)c12 (stereo unspecified) + CNC(C)C(=O)NC1CN(S(=O)(=O)c2cccc(S(=O)(=O)N3CCC4CCC(C(=O)NC(c5ccccc5)c5ccccc5)N4C(=O)C(NC(=O)C(C)NC)C3)c2)CCC2CCC(C(=O)NC(c3ccccc3)c3ccccc3)N2C1=O
> 10 µM: IC50 (second compound 0.00316 µM) | IC50 (second compound 0.01 µM) | IC50 (second compound 0.0316 µM) | IC50 (second compound 0.1 µM) | IC50 (second compound 0.316 µM) | IC50 (second compound 1 µM)
inactive: viability, T/C [1] 93.3% | viability, T/C [2] 85.7% | viability, T/C [3] 88% | viability, T/C [4] 85.6% | viability, T/C [5] 91% | viability, T/C [6] 78% | viability, T/C [7] 91.6% | viability, T/C [8] 81.9% | viability, T/C [9] 89.2% | viability, T/C [10] 76.4% | viability, T/C [11] 86.5% | viability, T/C [12] 78.7% | viability, T/C [13] 88.9% | viability, T/C [14] 77.8% | viability, T/C [15] 76.6% | viability, T/C [16] 82% | viability, T/C [17] 79.7% | viability, T/C [18] 70.1% | viability, T/C [19] 90.8% | viability, T/C [20] 85.2% | viability, T/C [21] 85.6% | viability, T/C [22] 73.7% | viability, T/C [23] 78.8% | viability, T/C [24] 75.4% | viability, T/C [25] 83% | viability, T/C [26] 81.8% | viability, T/C [27] 77.1% | viability, T/C [28] 76.4% | viability, T/C [29] 79.6% | viability, T/C [30] 70.3% | viability, T/C [31] 90.1% | viability, T/C [32] 82.2% | viability, T/C [33] 77.1% | viability, T/C [34] 80.4% | viability, T/C [35] 77.8% | viability, T/C [36] 69.2%

C=C(F)C(=O)N1CCN(c2nc(OCC3CCCN3C)nc3c2CCN(c2cccc4cccc(Cl)c24)C3)CC1CC#N (stereo unspecified) + CNC(C)C(=O)NC1CN(S(=O)(=O)c2cccc(S(=O)(=O)N3CCC4CCC(C(=O)NC(c5ccccc5)c5ccccc5)N4C(=O)C(NC(=O)C(C)NC)C3)c2)CCC2CCC(C(=O)NC(c3ccccc3)c3ccccc3)N2C1=O
inactive: viability, T/C [1] 99.5% | viability, T/C [2] 99.1% | viability, T/C [3] 101% | viability, T/C [4] 92.4% | viability, T/C [5] 91.6% | viability, T/C [7] 95.6% | viability, T/C [8] 92.4% | viability, T/C [9] 92.4% | viability, T/C [10] 100% | viability, T/C [11] 85.1% | viability, T/C [13] 88.1% | viability, T/C [14] 86.8% | viability, T/C [15] 107% | viability, T/C [16] 91.8% | viability, T/C [17] 86.8% | viability, T/C [19] 90.5% | viability, T/C [20] 102% | viability, T/C [21] 90.3% | viability, T/C [22] 99.3% | viability, T/C [23] 87.6% | viability, T/C [25] 89.2% | viability, T/C [26] 92.4% | viability, T/C [27] 96.2% | viability, T/C [28] 95.1% | viability, T/C [29] 41.9% | viability, T/C [31] 84.8% | viability, T/C [32] 91.3% | viability, T/C [33] 93.4% | viability, T/C [34] 95.4% | viability, T/C [35] 63.1%
5.29 µM: IC50 (second compound 0.01 µM)
5.52 µM: IC50 (second compound 0.00316 µM)
5.31 µM: IC50 (second compound 0.0316 µM)
5.4 µM: IC50 (second compound 0.1 µM)
2.64 µM: IC50 (second compound 0.316 µM)
active: viability, T/C [6] 5.56% | viability, T/C [12] 6.24% | viability, T/C [18] 5.07% | viability, T/C [24] 6.55% | viability, T/C [30] 4.83% | viability, T/C [36] 2.3%
4.05 µM: IC50 (second compound 1 µM)

CCN1C(C(=O)NC23CCC(C(=O)O)(CC2)CC3)C(c2cccc(Cl)c2F)C2(C(=O)Nc3cc(Cl)ccc32)C12CCCCC2 (stereo unspecified) + CNC(C)C(=O)NC1CN(S(=O)(=O)c2cccc(S(=O)(=O)N3CCC4CCC(C(=O)NC(c5ccccc5)c5ccccc5)N4C(=O)C(NC(=O)C(C)NC)C3)c2)CCC2CCC(C(=O)NC(c3ccccc3)c3ccccc3)N2C1=O
> 3 µM: IC50 (second compound 0.00316 µM) | IC50 (second compound 0.01 µM) | IC50 (second compound 0.0316 µM) | IC50 (second compound 0.1 µM) | IC50 (second compound 0.316 µM) | IC50 (second compound 1 µM)
inactive: viability, T/C (second compound 0.00316 µM, first compound 0.00949 µM) 103% | viability, T/C (second compound 0.00316 µM, first compound 0.03 µM) 97.6% | viability, T/C (second compound 0.00316 µM, first compound 0.0949 µM) 101% | viability, T/C (second compound 0.00316 µM, first compound 0.3 µM) 103% | viability, T/C (second compound 0.00316 µM, first compound 0.949 µM) 113% | viability, T/C (second compound 0.00316 µM, first compound 3 µM) 124% | viability, T/C (second compound 0.01 µM, first compound 0.00949 µM) 109% | viability, T/C (second compound 0.01 µM, first compound 0.03 µM) 92.5% | viability, T/C (second compound 0.01 µM, first compound 0.0949 µM) 98.2% | viability, T/C (second compound 0.01 µM, first compound 0.3 µM) 97.2% | viability, T/C (second compound 0.01 µM, first compound 0.949 µM) 106% | viability, T/C (second compound 0.01 µM, first compound 3 µM) 126% | viability, T/C (second compound 0.0316 µM, first compound 0.00949 µM) 97.2% | viability, T/C (second compound 0.0316 µM, first compound 0.03 µM) 99.6% | viability, T/C (second compound 0.0316 µM, first compound 0.0949 µM) 101% | viability, T/C (second compound 0.0316 µM, first compound 0.3 µM) 95.8% | viability, T/C (second compound 0.0316 µM, first compound 0.949 µM) 104% | viability, T/C (second compound 0.0316 µM, first compound 3 µM) 125% | viability, T/C (second compound 0.1 µM, first compound 0.00949 µM) 97.5% | viability, T/C (second compound 0.1 µM, first compound 0.03 µM) 99.3% | viability, T/C (second compound 0.1 µM, first compound 0.0949 µM) 96.7% | viability, T/C (second compound 0.1 µM, first compound 0.3 µM) 109% | viability, T/C (second compound 0.1 µM, first compound 0.949 µM) 105% | viability, T/C (second compound 0.1 µM, first compound 3 µM) 121% | viability, T/C (second compound 0.316 µM, first compound 0.00949 µM) 99.2% | viability, T/C (second compound 0.316 µM, first compound 0.03 µM) 102% | viability, T/C (second compound 0.316 µM, first compound 0.0949 µM) 106% | viability, T/C (second compound 0.316 µM, first compound 0.3 µM) 92.6% | viability, T/C (second compound 0.316 µM, first compound 0.949 µM) 103% | viability, T/C (second compound 0.316 µM, first compound 3 µM) 108% | viability, T/C (second compound 1 µM, first compound 0.00949 µM) 96.9% | viability, T/C (second compound 1 µM, first compound 0.03 µM) 103% | viability, T/C (second compound 1 µM, first compound 0.0949 µM) 98% | viability, T/C (second compound 1 µM, first compound 0.3 µM) 101% | viability, T/C (second compound 1 µM, first compound 0.949 µM) 116% | viability, T/C (second compound 1 µM, first compound 3 µM) 107%
